This passage reports Km and stoichiometry N results from article PMC10685196 (Heliyon, 2023).

Where two headings read alike, the source gives them in different places.

For experiment [1], the system named is Br2 β-glucosidase. To be noted: 0.1 M sodium phosphate, pH 6.5, 40 °C, 10 min.
The subject of experiment [2] is Br2 β-glucosidase. As to the kind of experiment: glucose release, glucose oxidase/ABTS assay, Michaelis-Menten fit. Type of experiment: biochemical, uncultured bacterium. The following applies: 0.1 M sodium phosphate, pH 6.5, 40 °C, 10 min.
The test system of experiment [3] is Br2 β-glucosidase. The following applies: read-out: pNP-Glc; 0.1 M sodium phosphate, pH 6.5, 40 °C, 10 min.
The target of experiment [4] is Br2 β-glucosidase (glycoside hydrolase family 1), wild type (bovine rumen metagenome (microbe not identified)). Put plainly: SEC. A general note: Size exclusion chromatography separates by hydrodynamic size, large species first.
The test system of experiment [5] is Br2 β-glucosidase. As to the kind of experiment: p-nitrophenol release, absorbance at […] nm, Michaelis-Menten fit. The class given is biochemical, uncultured bacterium. The following applies: read-out: pNP-Glc; 0.1 M sodium phosphate, pH 6.5, 40 °C, 10 min.
Experiment [6] has as its system Br2 β-glucosidase. To be noted: read-out: pNP-Glc; 0.1 M sodium phosphate, pH 6.5, 40 °C, 10 min; cited from earlier work.

As for `OC[C@H]1O[C@@H](O[C@H]2[C@H](O)[C@@H](O)[C@H](O[C@H]3[C@H](O)[C@@H](O)C(O)O[C@@H]3CO)O[C@@H]2CO)[C@H](O)[C@@H](O)[C@@H]1O` (stereo partly shown) [Cellotriose], the Km was 3.57 ± 0.33 mM in experiment [1] (read-out: Sophorose) and 6.73 ± 0.32 mM in experiment [2] (read-out: Sophorose).

With `OC[C@H]1O[C@@H](O[C@@H]2[C@@H](O)[C@H](O[C@H]3[C@H](O)[C@@H](CO)OC(O)[C@@H]3O)O[C@H](CO)[C@H]2O)[C@H](O)[C@@H](O)[C@@H]1O` (stereo partly shown) [Laminaritriose], the Km in experiment [2] (read-out: Sophorose) is 0.9 ± 0.09 mM. Turning to `OC[C@H]1O[C@@H](O[C@H]2[C@H](O)[C@@H](CO)OC(O)[C@@H]2O)[C@H](O)[C@@H](O)[C@@H]1O` (stereo partly shown) [Laminaribiose], the Km in experiment [3] worked out at 11.7 ± 4.2 mM; in experiment [2] (read-out: pNP-Glc) it was 1.29 ± 0.08 mM. Consider “Br2 β-glucosidase (glycoside hydrolase family 1), wild type (enzyme)”, for which the stoichiometry N (commonly the number of molecules, sites or subunits per partner or assembly) in experiment [4] turned out to be 4. In the case of `OC[C@H]1O[C@@H](O[C@H]2[C@H](O)[C@@H](O)[C@H](O[C@H]3[C@H](O)[C@@H](O)[C@H](O[C@H]4[C@H](O)[C@@H](O)C(O)O[C@@H]4CO)O[C@@H]3CO)O[C@@H]2CO)[C@H](O)[C@@H](O)[C@@H]1O` (stereo partly shown) [Cellotetraose], the Km in experiment [1] (read-out: Gentiobiose) stood at 1.83 ± 0.09 mM; in experiment [2] (read-out: Gentiobiose), 3.87 ± 0.16 mM. With `OC[C@H]1O[C@@H](OC[C@H]2OC(O)[C@H](O)[C@@H](O)[C@@H]2O)[C@H](O)[C@@H](O)[C@@H]1O` (stereo partly shown) [Gentiobiose], the Km in experiment [2] (read-out: Gentiobiose) is 35.8 ± 10.9 mM.

Take `O=[N+]([O-])c1ccc(O[C@@H]2O[C@H](CO)[C@@H](O)[C@H](O)[C@H]2O)cc1` [pNP-Glc, p-nitrophenyl β-D-glucopyranoside]: the Km in experiment [5] was determined as 0.55 ± 0.04 mM. Consider `OC[C@H]1O[C@@H](O[C@@H]2[C@@H](O)[C@H](O[C@@H]3[C@@H](O)[C@H](O[C@H]4[C@H](O)[C@@H](CO)OC(O)[C@@H]4O)O[C@H](CO)[C@H]3O)O[C@H](CO)[C@H]2O)[C@H](O)[C@@H](O)[C@@H]1O` (stereo partly shown) [Laminaritetraose], for which the Km in experiment [2] (read-out: Gentiobiose) worked out at 2.56 ± 0.41 mM. As to `OC[C@H]1O[C@@H](O[C@H]2[C@H](O)[C@@H](O)C(O)O[C@@H]2CO)[C@H](O)[C@@H](O)[C@@H]1O` (stereo partly shown) [Cellobiose], the Km in experiment [6] is 24.3 ± 9.8 mM. For the molecule `OC[C@H]1O[C@@H](O[C@H]2C(O)O[C@H](CO)[C@@H](O)[C@@H]2O)[C@H](O)[C@@H](O)[C@@H]1O` (stereo partly shown) [Sophorose], in experiment [2] (read-out: Sophorose), the Km amounted to 2.68 ± 0.16 mM.
